Results published in patent US7202085B2, “Control of gene expression in eukaryotic cells” (Calgene LLC, priority 1999, dated 2007).
Values joined by “and” are separate entries in the source; they are usually repeats but may differ in a detail not shown here. Equal values may be shown once. Read-outs that look alike come from different tables or passages of the source.

Legend:
[1] = test system: VP16-TraR; experiment: Transient GUS reporter assay in carrot protoplasts with VP16-TraR effector and tra box reporter; format: cell-based, Agrobacterium tumefaciens; parameters: 4, 5, 6 (replicate GUS activities, +inducer): unit not given here
[2] = test system: tra box-GUS reporter
Method: Plasmids for transfection were isolated and purified using Megaprep plasmid DNA isolation kit (Qiagen). Carrot protoplasts for transfections were prepared from carrot cell suspension culture and transfected with purified DNA as described (Ulmasov et al., Plant Cell 7:1611–1623, 1995). Briefly, 10 μg of the reporter plasmid and 5 μg of the effector plasmid were incubated with 10^6 protoplasts for five minutes at the room temperature in the presence of polyethylene glycol-calcium solution. After diluting approximately 10-fold with the culture medium, the protoplasts were incubated in the dark for 36 hours either in the presence or absence of the inducer 3-oxohexanoyl-homoserine lactone (OHHL, racemic mixture of the L- and D-isomers, purchased from Sigma Chemical Co., St Louis, Mo.). After incubation, protoplasts were collected by low-speed centrifugation, lysed and the level of GUS activity was measured using fluorometric GUS assay (Jefferson et al., EMBO J. 6:3901–3907, 1987).
Ten μg of the reporter plasmid (pMON53031), and indicated amount of the 35S effector plasmid per reaction was used for transfection in triplicate. […] The “− inducer” and “+ inducer” columns are averages of the GUS activities.
These constructs were tested for background GUS activity and TraR responsiveness in carrot protoplasts.

[3] = Table 6 lane 20: TraA9(3X), cl.8 +HA-VP16-TraR, 12.5 μM C8-AHL
[4] = Table 5 lane 1: tra box (6X), cl.7 alone (35S-CAT), 12.5 μM C8-AHL
[5] = Table 5 lane 3: traA1(3X), cl.35 alone (35S-CAT), 12.5 μM C8-AHL
[6] = Table 5 lane 5: traA2(3X), cl.43 alone (35S-CAT), 12.5 μM C8-AHL
[7] = Table 5 lane 7: traA3(3X), cl.4 alone (35S-CAT), 12.5 μM C8-AHL
[8] = Table 5 lane 9: traA4(3X), cl.23 alone (35S-CAT), 12.5 μM C8-AHL
[9] = Table 5 lane 11: traA5(3X), cl.2 alone (35S-CAT), 12.5 μM C8-AHL
[10] = Table 5 lane 13: traA6(3X), cl.21 alone (35S-CAT), 12.5 μM C8-AHL
[11] = Table 5 lane 15: traA7(3X), cl.15 alone (35S-CAT), 12.5 μM C8-AHL
[12] = Table 5 lane 17: traA8(3X), cl.4 alone (35S-CAT), 12.5 μM C8-AHL
[13] = Table 5 lane 19: traA9(3X), cl.8 alone (35S-CAT), 12.5 μM C8-AHL
[14] = Table 5 lane 21: min-46GUS, 12.5 μM C8-AHL
[15] = Table 6 lane 1: Tra box(3X), cl.5 + CAT, 12.5 μM C8-AHL
[16] = Table 6 lane 3: TraA1(3X), cl.35 + CAT, 12.5 μM C8-AHL

Structure (SMILES): CCCCCC(=O)CC(=O)N[C@H]1CCOC1=O [C8-HSL, 3-oxooctanoyl-L-homoserine lactone]
- 4, 5, 6 (replicate GUS activities, +inducer) ([1]; Table 5 lane 2: tra box (6X), cl.7 +HA-VP16-TraR, 12.5 μM C8-AHL): 933.8 and 1033.2 and 995.1
- 4, 5, 6 (replicate GUS activities, +inducer) ([1]; Table 5 lane 4: traA1(3X), cl.35 +HA-VP16-TraR, 12.5 μM C8-AHL): 1896.4 and 1959.7 and 1968.4
- 4, 5, 6 (replicate GUS activities, +inducer) ([1]; Table 5 lane 6: traA2(3X), cl.43 +HA-VP16-TraR, 12.5 μM C8-AHL): 2198.3 and 2341.9 and 2304.6
- 4, 5, 6 (replicate GUS activities, +inducer) ([1]; Table 5 lane 8: traA3(3X), cl.4 +HA-VP16-TraR, 12.5 μM C8-AHL): 117.3 and 111.1
- 4, 5, 6 (replicate GUS activities, +inducer) ([1]; Table 5 lane 10: traA4(3X), cl.23 +HA-VP16-TraR, 12.5 μM C8-AHL): 142.9 and 112.2 and 113.5
- 4, 5, 6 (replicate GUS activities, +inducer) ([1]; Table 5 lane 12: traA5(3X), cl.2 +HA-VP16-TraR, 12.5 μM C8-AHL): 21.3 and 18.5 and 21.8
- 4, 5, 6 (replicate GUS activities, +inducer) ([1]; Table 5 lane 14: traA6(3X), cl.21 +HA-VP16-TraR, 12.5 μM C8-AHL): 64.8 and 64.7
- 4, 5, 6 (replicate GUS activities, +inducer) ([1]; Table 5 lane 16: traA7(3X), cl.15 +HA-VP16-TraR, 12.5 μM C8-AHL): 237.5 and 226.8 and 240.1
- 4, 5, 6 (replicate GUS activities, +inducer) ([1]; Table 5 lane 18: traA8(3X), cl.4 +HA-VP16-TraR, 12.5 μM C8-AHL): 828.8 and 874.3 and 960.9
- 4, 5, 6 (replicate GUS activities, +inducer) ([1]; Table 5 lane 20: traA9(3X), cl.8 +HA-VP16-TraR, 12.5 μM C8-AHL): 65.4 and 65.3 and 60.5
- 4, 5, 6 (replicate GUS activities, +inducer) ([1]; Table 6 lane 2: Tra box(3X), cl.5 +HA-VP16-TraR, 12.5 μM C8-AHL): 1350.6 and 1542.2 and 1835.6
- 4, 5, 6 (replicate GUS activities, +inducer) ([1]; Table 6 lane 4: TraA1(3X), cl.35 +HA-VP16-TraR, 12.5 μM C8-AHL): 1426.4 and 1490.9 and 1763.9
- 4, 5, 6 (replicate GUS activities, +inducer) ([1]; Table 6 lane 6: TraA2(3X), cl.43 +HA-VP16-TraR, 12.5 μM C8-AHL): 1757.9 and 2255.2 and 2158.0
- 4, 5, 6 (replicate GUS activities, +inducer) ([1]; Table 6 lane 8: TraA3(3X), cl.4 +HA-VP16-TraR, 12.5 μM C8-AHL): 106.3 and 96.1
- 4, 5, 6 (replicate GUS activities, +inducer) ([1]; Table 6 lane 10: TraA4(3X), cl.23 +HA-VP16-TraR, 12.5 μM C8-AHL): 108.1 and 108.3 and 112.6
- 4, 5, 6 (replicate GUS activities, +inducer) ([1]; Table 6 lane 12: TraA5(3X), cl.2 +HA-VP16-TraR, 12.5 μM C8-AHL): 91.6 and 72.7 and 82.6
- 4, 5, 6 (replicate GUS activities, +inducer) ([1]; Table 6 lane 14: TraA6(3X), cl.21 +HA-VP16-TraR, 12.5 μM C8-AHL): 1.4 and 1.9 and 6.3
- 4, 5, 6 (replicate GUS activities, +inducer) ([1]; Table 6 lane 16: TraA7(3X), cl.15 +HA-VP16-TraR, 12.5 μM C8-AHL): 216.9 and 217.5 and 275.9
- 4, 5, 6 (replicate GUS activities, +inducer) ([1]; Table 6 lane 18: TraA8(3X), cl.4 +HA-VP16-TraR, 12.5 μM C8-AHL): 1774.0 and 1839.9 and 1663.3
- 4, 5, 6 (replicate GUS activities, +inducer) [1, 3]: 307.2 and 197.9 and 183.9
- +inducer (average GUS activity) [1, 3]: 229.7
- 4, 5, 6 (replicate GUS activities, +inducer) ([1]; Table 6 lane 22: TraA10(3X), cl.17 +HA-VP16-TraR, 12.5 μM C8-AHL): 621.1 and 629.5 and 672.7
- 4, 5, 6 (replicate GUS activities, +inducer) ([1]; Table 6 lane 24: TraA-1(3X), cl.14 +HA-VP16-TraR, 12.5 μM C8-AHL): 25.0 and 30.0
- 4, 5, 6 (replicate GUS activities, +inducer) ([1]; Table 7 lane 3: TraA8(4X), cl.16 +HA-VP16-TraR, 12.5 μM C8-AHL): 1190.9 and 991.1 and 863.8
- 4, 5, 6 (replicate GUS activities, +inducer) ([1]; Table 7 lane 5: TraA8(3X), cl.4(60 μg) +TraR, 12.5 μM C8-AHL): 1867.2 and 1559.0 and 1569.7
- 4, 5, 6 (replicate GUS activities, +inducer) ([1]; Table 7 lane 8: TraA8(3X), cl.4(25 μg) + TraR + TraM, 12.5 μM C8-AHL): 13.5 and 9.6 and 12.1
- 4, 5, 6 (replicate GUS activities, +inducer) ([1]; Table 7 lane 9: TraA8(3X), cl.4 (25 μg) + TraR + TraS, 12.5 μM C8-AHL): 279.4 and 224.4 and 241.0
- 4, 5, 6 (replicate GUS activities, +inducer) ([1]; Table 7 lane 10: TraA8(3X), cl.4 (25 μg) + TraR + CAT, 12.5 μM C8-AHL): 698.2 and 680.1 and 908.4
- 4, 5, 6 (replicate GUS activities, +inducer) ([1]; Table 8 lane 3: TraA8(4X) +TraR, 25 μM (row 0/25 μM)): 7034.5 and 8005.8 and 7531.5
- +inducer (average GUS activity) ([2]; Table 4: min35S-GUS, 25 [i M OOHL]): 6.1
- +inducer (average GUS activity) ([2]; Table 4: pMON53031 alone, 25 [i M OOHL]): 265
- 4, 5, 6 (replicate GUS activities, +inducer) [2, 4]: 569.8 and 647.3 and 643.6
- +inducer (average GUS activity) [2, 4]: 620.2
- 4, 5, 6 (replicate GUS activities, +inducer) [2, 5]: 110.8 and 118.5 and 145.2
- +inducer (average GUS activity) [2, 5]: 124.8
- 4, 5, 6 (replicate GUS activities, +inducer) [2, 6]: 240.6 and 221.1 and 229.7
- +inducer (average GUS activity) [2, 6]: 230.5
- 4, 5, 6 (replicate GUS activities, +inducer) [2, 7]: 89.3 and 94.4 and 103.2
- +inducer (average GUS activity) [2, 7]: 95.6
- 4, 5, 6 (replicate GUS activities, +inducer) [2, 8]: 177.7 and 196.0 and 195.0
- +inducer (average GUS activity) [2, 8]: 189.6
- 4, 5, 6 (replicate GUS activities, +inducer) [2, 9]: 20.6 and 16.2 and 13.1
- +inducer (average GUS activity) [2, 9]: 16.6
- 4, 5, 6 (replicate GUS activities, +inducer) [2, 10]: 73.6 and 64.2 and 76.1
- +inducer (average GUS activity) [2, 10]: 71.3
- 4, 5, 6 (replicate GUS activities, +inducer) [2, 11]: 215.1 and 200.0 and 238.6
- +inducer (average GUS activity) [2, 11]: 217.9
- 4, 5, 6 (replicate GUS activities, +inducer) [2, 12]: 36.3 and 43.3 and 39.8
- +inducer (average GUS activity) [2, 12]: 39.8
- 4, 5, 6 (replicate GUS activities, +inducer) [2, 13]: 32.4 and 35.6 and 36.2
- +inducer (average GUS activity) [2, 13]: 34.7
- 4, 5, 6 (replicate GUS activities, +inducer) [2, 14]: 145.4 and 124.2 and 116.0
- +inducer (average GUS activity) [2, 14]: 128.5
- 4, 5, 6 (replicate GUS activities, +inducer) [2, 15]: 264.6 and 251.9 and 230.9
- +inducer (average GUS activity) [2, 15]: 249.1
- 4, 5, 6 (replicate GUS activities, +inducer) [2, 16]: 70.7 and 54.2 and 42.8
- +inducer (average GUS activity) [2, 16]: 55.9
